Results: patent publication US20150196668A1, “NANOMEDICINES FOR EARLY NERVE REPAIR” (Purdue Research Foundation, priority 2011, published 2015)

Tests used:
[1] = system: primary neuron and glia cells; experiment: LDH release from glutamate challenged primary neuron and glia cells; assay type: cell-based
Method: FIGS. 36A-B show rescue of glutamate challenged primary neuron and glia cells as measured by LDH release. Studies with glutamate challenged primary neuron and glial cells show efficacy of GC-MP/MP and GCMP at high concentrations and GC-MP/MP at low concentrations (FIG. 36A). MPHS is beneficial at lower concentrations. LDH release from glutamate challenged (100 umol) primary neuron and glial cells treated with GC, GC-MP, GC-MP/MP (all 1 mg/ml) and MPHS (250 ug/ml) (FIG. 36B).

PC12 cell = experiment: H2O2-induced PC12 cell injury model, apoptosis (Example 1); assay type: cell-based

C[C@H]1C[C@@H]2[C@H]([C@@H](O)C[C@@]3(C)[C@H]2CC[C@]3(O)C(=O)COC(=O)CCC(=O)O)[C@@]2(C)C=CC(=O)C=C12 [MPHS, methylprednisolone hemisuccinate]
rescue of glutamate challenged cells, LDH release ([1]; 16 hours, GC, GC-MP, GC-MP/MP 1 mg/ml, MPHS 250 ug/ml, glutamate 100 umol): not significant
rescue of glutamate challenged cells at low concentrations ([1]; FIG. 36A): beneficial

COc1cc(/C=C/C(=O)CC(=O)/C=C/c2ccc(O)c(OC)c2)ccc1O [curcumin]
reducing cell apoptosis (PC12 cell): effective in reducing cell apoptosis
